In patent US8952024B2, “Herbicidal pyrimidone derivatives” (E I du Pont de Nemours and Company, priority 2009, dated 2015):

How the values were obtained:
Assay in all cases: Test B pre-/postemergence plant response
Assay type in all cases: in vivo
corn (Zea mays) = settings: for Corn plant response rating (0 to 100 scale): 0 is no effect, 13 to 15 days
Method in brief: (§1)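 Test compounds, formulated in a non-phytotoxic solvent mixture with surfactant, are applied to the soil surface (loam and sand blend) right after seeding, or sprayed over plants at the 1- to 4-leaf stage grown in peat moss/vermiculite medium. After 13 to 15 days under glasshouse conditions, each species is scored visually from 0 (no effect) to 100 (complete control) against controls.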

[1] = tested on: pigweed (Amaranthus retroflexus); settings: for Pigweed plant response rating (0 to 100 scale): 0 is no effect, 13 to 15 days
Method in brief: as §1

[2] = tested on: woolly cupgrass (Eriochloa villosa); settings: for Cupgrass, Woolly plant response rating (0 to 100 scale): 0 is no effect, 13 to 15 days
Method in brief: as §1

[3] = tested on: lambsquarters (Chenopodium album); settings: for Lambsquarters plant response rating (0 to 100 scale): 0 is no effect
Method in brief: as §1

[4] = tested on: large crabgrass (Digitaria sanguinalis); settings: for Crabgrass, Large plant response rating (0 to 100 scale): 0 is no effect
Method in brief: as §1

[5] = tested on: Italian ryegrass (Lolium multiflorum); settings: for Ryegrass, Italian plant response rating (0 to 100 scale): 0 is no effect
Method in brief: as §1

[6] = tested on: Surinam grass (Brachiaria decumbens); settings: for Surinam Grass plant response rating (0 to 100 scale): 0 is no effect, 13 to 15 days
Method in brief: as §1

[7] = tested on: goosegrass (Eleusine indica); settings: for Goosegrass plant response rating (0 to 100 scale): 0 is no effect
Method in brief: as §1

[8] = Postemergence, 31 g ai/ha, 0 to 100 scale (0 no effect, 100 complete control)
[9] = Postemergence, 125 g ai/ha, scale 0 to 100 (0 no effect, 100 complete control)
[10] = Postemergence, 62 g ai/ha, scale 0 to 100 (0 no effect, 100 complete control)
[11] = Postemergence, 250 g ai/ha, scale 0 to 100 (0 no effect, 100 complete control), 13 to 15 days
[12] = 31 g ai/ha, postemergence, scale 0 to 100, 0 is no effect, 100 is complete control
[13] = 62 g ai/ha, postemergence, 100 is complete control
[14] = Postemergence, 125 g ai/ha, visual rating after 13 to 15 days, scale 0 (no effect) to 100 (complete control)
[15] = Postemergence, 250 g ai/ha, scale 0 to 100 (0 no effect, 100 complete control)
[16] = 62 g ai/ha, postemergence, 100 is complete control, 13 to 15 days

## CCn1c(-c2cccc(F)c2)ncc(C(=O)C2=C(O)C3CCC(C3)C2=O)c1=O (centres unmarked) [Compound 236]
Corn (Zea mays); [8]
  Plant response rating, Corn: 15
Corn (Zea mays); [9]
  Plant response rating, Corn: 70
Corn (Zea mays); [10]
  Plant response rating, Corn: 60
[1]; [8]
  Plant response rating, Pigweed: 85
[1]; [10]
  Plant response rating, Pigweed: 85
[2]; [8]
  Plant response rating, Cupgrass, Woolly: 70
[2]; [9]
  Plant response rating, Cupgrass, Woolly: 95
[2]; [10]
  Plant response rating, Cupgrass, Woolly: 85
[3]; [8]
  Plant response rating, Lambsquarters: 98
[3]; [9]
  Plant response rating, Lambsquarters: 100
[3]; [11]
  Plant response rating, Lambsquarters: 100
[3]; [10]
  Plant response rating, Lambsquarters: 100
[4]; [8]
  Plant response rating, Crabgrass, Large: 75
[4]; [9]
  Plant response rating, Crabgrass, Large: 98
[4]; [11]
  Plant response rating, Crabgrass, Large: 100
[4]; [10]
  Plant response rating, Crabgrass, Large: 90
[5]; [8]
  Plant response rating, Ryegrass, Italian: 0
[5]; [11]
  Plant response rating, Ryegrass, Italian: 5
[5]; [10]
  Plant response rating, Ryegrass, Italian: 0
[6]; [8]
  Plant response rating, Surinam Grass: 60
[6]; [10]
  Plant response rating, Surinam Grass: 70
[7]; [8]
  Plant response rating, Goosegrass: 80
[7]; [9]
  Plant response rating, Goosegrass: 95
[7]; [11]
  Plant response rating, Goosegrass: 100
[7]; [10]
  Plant response rating, Goosegrass: 90

## CCCc1ncc(C(=O)C2=C(O)CCCC2=O)c(=O)n1-c1cccc(C)c1 [Compound 79]
Corn (Zea mays); [12]
  Plant response rating, Corn: 5
Corn (Zea mays); [13]
  Corn plant response rating (0 to 100 scale): 45
Corn (Zea mays); [14]
  Plant response rating, Corn: 60
Corn (Zea mays); [15]
  Plant response rating, Corn: 75
[1]; [12]
  Plant response rating, Pigweed: 100
[1]; [13]
  Pigweed plant response rating (0 to 100 scale): 100
[1]; [14]
  Plant response rating, Pigweed: 100
[1]; [15]
  Plant response rating, Pigweed: 100
[2]; [12]
  Plant response rating, Cupgrass, Woolly: 10
[2]; [13]
  Cupgrass, Woolly plant response rating (0 to 100 scale): 40
[2]; [14]
  Plant response rating, Cupgrass, Woolly: 65
[2]; [15]
  Plant response rating, Cupgrass, Woolly: 75
[3]; [12]
  Plant response rating, Lambsquarters: 95
[3]; [16]
  Lambsquarters plant response rating (0 to 100 scale): 98
[3]; [14]
  Plant response rating, Lambsquarters: 100
[3]; [15]
  Plant response rating, Lambsquarters: 100
[4]; [12]
  Plant response rating, Crabgrass, Large: 80
[4]; [16]
  Crabgrass, Large plant response rating (0 to 100 scale): 85
[4]; [14]
  Plant response rating, Crabgrass, Large: 90
[4]; [15]
  Plant response rating, Crabgrass, Large: 95
[5]; [12]
  Plant response rating, Ryegrass, Italian: 20
[5]; [16]
  Ryegrass, Italian plant response rating (0 to 100 scale): 20
[5]; [14]
  Plant response rating, Ryegrass, Italian: 50
[5]; [15]
  Plant response rating, Ryegrass, Italian: 55
[6]; [12]
  Plant response rating, Surinam Grass: 20
[6]; [13]
  Surinam Grass plant response rating (0 to 100 scale): 45
[6]; [14]
  Plant response rating, Surinam Grass: 75
[6]; [15]
  Plant response rating, Surinam Grass: 90
[7]; [12]
  Plant response rating, Goosegrass: 45
[7]; [16]
  Goosegrass plant response rating (0 to 100 scale): 65
[7]; [14]
  Plant response rating, Goosegrass: 70
[7]; [15]
  Plant response rating, Goosegrass: 80

## O=C1CCCC(O)=C1C(=O)c1cnc(-c2ccc(Br)cc2)n(-c2ccccc2)c1=O [Compound 70]
Corn (Zea mays); [12]
  Plant response rating, Corn: 15
Corn (Zea mays); [13]
  Corn plant response rating (0 to 100 scale): 35
Corn (Zea mays); [14]
  Plant response rating, Corn: 60
Corn (Zea mays); [15]
  Plant response rating, Corn: 75
[1]; [12]
  Plant response rating, Pigweed: 85
[1]; [13]
  Pigweed plant response rating (0 to 100 scale): 98
[1]; [14]
  Plant response rating, Pigweed: 98
[1]; [15]
  Plant response rating, Pigweed: 100
[2]; [12]
  Plant response rating, Cupgrass, Woolly: 45
[2]; [13]
  Cupgrass, Woolly plant response rating (0 to 100 scale): 65
[2]; [14]
  Plant response rating, Cupgrass, Woolly: 90
[2]; [15]
  Plant response rating, Cupgrass, Woolly: 90
[3]; [12]
  Plant response rating, Lambsquarters: 85
[3]; [16]
  Lambsquarters plant response rating (0 to 100 scale): 98
[3]; [14]
  Plant response rating, Lambsquarters: 100
[3]; [15]
  Plant response rating, Lambsquarters: 100
[4]; [12]
  Plant response rating, Crabgrass, Large: 80
[4]; [16]
  Crabgrass, Large plant response rating (0 to 100 scale): 90
[4]; [14]
  Plant response rating, Crabgrass, Large: 95
[4]; [15]
  Plant response rating, Crabgrass, Large: 100
[5]; [12]
  Plant response rating, Ryegrass, Italian: 10
[5]; [16]
  Ryegrass, Italian plant response rating (0 to 100 scale): 10
[5]; [14]
  Plant response rating, Ryegrass, Italian: 50
[5]; [15]
  Plant response rating, Ryegrass, Italian: 70
[6]; [12]
  Plant response rating, Surinam Grass: 65
[6]; [13]
  Surinam Grass plant response rating (0 to 100 scale): 65
[6]; [14]
  Plant response rating, Surinam Grass: 95
[6]; [15]
  Plant response rating, Surinam Grass: 100
[7]; [12]
  Plant response rating, Goosegrass: 75
[7]; [16]
  Goosegrass plant response rating (0 to 100 scale): 85
[7]; [14]
  Plant response rating, Goosegrass: 85
[7]; [15]
  Plant response rating, Goosegrass: 95
